From patent US20130192322A1, “Plant Fertilizers Derived from Organic Nitrogen and Phosphorus Sources” (priority 2011, published 2013)

Tested on: Tomato (var. Pink Girl)
Assay: Example 4: effect of enzymatically hydrolyzed protein and phytic acid on tomato growth in greenhouse mix
Format: in vivo
Method: Tomato (var. Pink Girl) were grown in a greenhouse mix (⅓ each of components, soil, peat moss and vermiculite). The treatments were arranged in randomized design with 3 replicates for each treatment. Seedlings were harvested and tops weighed forty six days after planting. Treatments included additions of phytic acid and protein hydrolyzate separately and in combination at different concentrations and applied to the soil and as foliar. First application, made two weeks after planting, was both as a foliar and to the soil (50 ml/plant). The second application, made two weeks following the first,) was both to soil (80 ml/plant) and as a foliar.

`O=P(O)(O)O[C@H]1[C@H](OP(=O)(O)O)[C@@H](OP(=O)(O)O)[C@H](OP(=O)(O)O)[C@@H](OP(=O)(O)O)[C@H]1OP(=O)(O)O` [Phytic Acid, phytic acid] was tested, and the “% of control” value (0.04% P2O5, Foliar) was 109%, the “Av. Top fresh wt. of plants” value (0.04% P2O5, Foliar) was 27.0 gm and the “% of control” value (0.04% P2O5, Soil application) was 109%. The “Av. Top fresh wt. of plants” value (0.04% P2O5, Soil application) was 27.0 gm, the “% of control” value (0.1% P2O5, Foliar) was 107% and the “Av. Top fresh wt. of plants” value (0.1% P2O5, Foliar) was 26.3 gm. The “% of control” value (0.1% P2O5, Soil application) was 128% and the “Av. Top fresh wt. of plants” value (0.1% P2O5, Soil application) was 31.5 gm.
